Experimental data as given in patent US11066384B2, “Crystalline forms of ARN-509, preparation method and use thereof” (Crystal Pharmaceutical (Suzhou) Co., Ltd., priority 2018, dated 2021).
Entries after “also recorded” stand apart in the source; their conditions may differ.

Legend:
Assay type in all cases: physicochemical
[1] = Kinetic solubility of Form CS8, Form A and Form B in pH 1.0-6.8 media (HPLC); conditions: for Solubility relative to Form A of the prior art / Solubility relative to Form B of the prior art: 15 minutes
Method: The HPLC method parameters for solubility test in the present disclosure are as follows:
1. Column: Waters XBridge C18 150×4.6 mm, 5 μm
2. Mobile Phase: A: 0.1% TFA in H2O • B: 0.1% TFA in Acetonitrile
4. Injection Volume: 5 μL
5. Detection wavelength: 242 nm
6. Column Temperature: 40° C.
Different parts of the human body have different acidity (pH 1.0-8.0). The pH in stomach is 1.0-2.0, and the pH in the small intestine is 4.0-7.0. The stomach and small intestine are the key organs for drug dissolution and absorption, so measuring the dynamic solubility of a drug in a medium with pH 1.0-7.0 plays an important role in predicting the in vivo bioavailability.
About 20 mg of Form CS8, Form A and Form B of the prior art were suspended into 2.0 mL of 0.1 mol/L HCl aqueous solution (pH=1.0), 2.0 mL of acetic acid buffer solution (PH=4.5) and 2.0 mL of phosphate buffer solution (pH=6.8) to make suspensions. After equilibrated for 15 minutes, 30 minutes, and 1 hour, concentrations (μg/mL) of the saturated solutions were measured by HPLC.

[2] = Adhesiveness: material sticking to the punch; conditions: 30 mg, φ8 mm round tooling, 10 KN, held 30 s
Method: Approximately 30 mg of Form CS8, Form A and Form B of the prior art were weighed and then added into the dies of φ8 mm round tooling, compressed at 10 KN and held for 30 s. The punch was weighed and amount of material sticking to the punch was calculated. The compression was repeated twice and the cumulative amount, maximum amount and average amount of material sticking to the punch during compression process were recorded.

[3] = Particle size distribution (laser particle size analyzer); conditions: Isopar G containing 0.2% lecithin
Method: The particle size distribution data in the present disclosure were acquired by an […] laser particle size analyzer of Microtrac. Microtrac […] is equipped with an SDC (Sample Delivery Controller). The test is carried out in wet mode, and the dispersion medium is Isopar G. The laser particle size analyzer parameters are as follows: [table] Approximately 20 mg of Form CS8, Form A and Form B of the prior art were added into 10 mL of Isopar G (containing 0.2% lecithin). The mixture was mixed thoroughly and transferred into the SDC. The measurement was started when the sample amount indicator is in appropriate position. The average particle diameter calculated by volume, the diameter at which 10% mass is comprised of smaller particles (D10), the diameter at which 50% mass is comprised of smaller particles (D50) and the diameter at which 90% mass is comprised of smaller particles (D90) were obtained in particle size distribution test.

[4] = Mechanical stability: manual grinding for 5 minutes (XRPD); conditions: ground manually for 5 minutes in a mortar
Method: Form CS8, Form A and Form B of the prior art were ground manually for 5 minutes in a mortar, XRPD patterns were collected before and after gridding. The XRPD pattern overlay of Form CS8, Form A and Form B of the prior art are depicted in FIG. 17, FIG. 18 and FIG. 19.

[5] = Compressibility: tensile strength of compacts; conditions: 80 mg, φ6 mm round tooling, 10 KN; for Diameter / Hardness / Thickness: after 24 h at room temperature; for Tensile strength: T=2H/πDL
Method: 80 mg of Form CS8, Form A and Form B of the prior art were weighed and added into the dies of φ6 mm round tooling, compressed at 10 KN manually, then stored at room temperature for 24 h until complete elastic recovery. Hardness (H) was tested with an Intelligent Tablet Hardness Tester. Diameter (D) and thickness (L) were tested with a caliper. Tensile strength of the powder was calculated with the following formula: T=2H/πDL. Under a certain force, the greater the tensile strength, the better the compressibility.

[6] = Storage stability of Form CS8 under long-term and accelerated conditions (XRPD, HPLC); conditions: for Solid form after storage / Purity after storage / Chemical purity during storage: 6 months; for Purity after storage: initial purity 99.96%; for Time for which the form does not change / keeps stable on storage / Chemical purity during storage: drug substance
Method: The HPLC method parameters for purity test in the present disclosure are as follows: Approximately 30 mg of Form CS8 was stored under 25° C./60% RH and 40° C./75% RH in open or close dishes. Crystalline form and chemical impurity were checked by XRPD and HPLC, respectively. XRPD pattern overlay of Form CS8 of the present disclosure before and after being stored under 25° C./60% RH are depicted in FIG. 13. XRPD pattern overlay of Form CS8 of the present disclosure before and after being stored under 40° C./75% RH are depicted in FIG. 14.

[7] = Storage stability of Form CS8 under stress condition (XRPD); conditions: 60° C./75% RH
Method: Approximately 30 mg of Form CS8 was stored under 60° C./75% RH in open or close dishes. Crystalline form change of Form CS8 was tested by XRPD.

[8] = Mechanical stability: tableting under different pressures (XRPD)
Description: A certain amount of Form CS8 was compressed into pellets under different pressures with suitable tableting die. Crystalline form before and after tableting were checked by XRPD. The test results are shown in Table 14, XRPD pattern overlay is depicted in FIG. 16.

[9] = 0.1 mol/L HCl aqueous solution pH=1.0, equilibrated 15 min
[10] = 0.1 mol/L HCl aqueous solution pH=1.0, equilibrated 30 min
[11] = 0.1 mol/L HCl aqueous solution pH=1.0, equilibrated 1 h
[12] = acetic acid buffer solution pH=4.5, equilibrated 15 min
[13] = acetic acid buffer solution pH=4.5, equilibrated 30 min
[14] = acetic acid buffer solution pH=4.5, equilibrated 1 h
[15] = phosphate buffer solution pH=6.8, equilibrated 15 min
[16] = phosphate buffer solution pH=6.8, equilibrated 30 min
[17] = phosphate buffer solution pH=6.8, equilibrated 1 h
[18] = pH=4.5 acetic acid buffer solution
[19] = pH=6.8 phosphate buffer solution

## CNC(=O)c1ccc(N2C(=S)N(c3cnc(C#N)c(C(F)(F)F)c3)C(=O)C23CCC3)cc1F [Form A of the prior art, 4-[7-(6-cyano-5-trifluoromethylpyridin-3-yl)-8-oxo-6-thioxo-5,7-diazaspiro[3.4]oct-5-yl]-2-fluoro-N-methylbenzamide]
[1]; [9]
  Solubility (concentration of saturated solution): 7.4 µg/mL
[1]; [10]
  Solubility (concentration of saturated solution): 6.2 µg/mL
[1]; [11]
  Solubility (concentration of saturated solution): 8.0 µg/mL
[1]; [12]
  Solubility (concentration of saturated solution): 5.9 µg/mL
[1]; [13]
  Solubility (concentration of saturated solution): 5.2 µg/mL
[1]; [14]
  Solubility (concentration of saturated solution): 5.5 µg/mL
[1]; [15]
  Solubility (concentration of saturated solution): 6.1 µg/mL
[1]; [16]
  Solubility (concentration of saturated solution): 8.4 µg/mL
[1]; [17]
  Solubility (concentration of saturated solution): 4.8 µg/mL
[2]
  Average amount of material sticking to the punch: 0.13 mg
  Maximum amount of material sticking to the punch: 0.19 mg
[3]
  D10: 4.22 μm
  D50: 14.81 μm
  D90: 130.4 μm
  MV (average particle diameter calculated by volume): 53.51 μm
[4]
  Crystalline form/crystallinity after grinding: transformed into amorphous after grinding; also recorded: Almost change to amorphous
[5]
  Diameter: 6.08 mm
  Hardness: 12.3 N
  Thickness: 2.10 mm
  Tensile strength: 0.64 MPa

## CNC(=O)c1ccc(N2C(=S)N(c3cnc(C#N)c(C(F)(F)F)c3)C(=O)C23CCC3)cc1F [Form B of the prior art, 4-[7-(6-cyano-5-trifluoromethylpyridin-3-yl)-8-oxo-6-thioxo-5,7-diazaspiro[3.4]oct-5-yl]-2-fluoro-N-methylbenzamide]
[1]; [9]
  Solubility (concentration of saturated solution): 1.2 µg/mL
[1]; [10]
  Solubility (concentration of saturated solution): 1.5 µg/mL
[1]; [11]
  Solubility (concentration of saturated solution): 1.3 µg/mL
[1]; [12]
  Solubility (concentration of saturated solution): 1.1 µg/mL
[1]; [13]
  Solubility (concentration of saturated solution): 1.4 µg/mL
[1]; [14]
  Solubility (concentration of saturated solution): 1.3 µg/mL
[1]; [15]
  Solubility (concentration of saturated solution): 1.2 µg/mL
[1]; [16]
  Solubility (concentration of saturated solution): 1.0 µg/mL
[1]; [17]
  Solubility (concentration of saturated solution): 0.9 µg/mL
[2]
  Average amount of material sticking to the punch: 0.15 mg
  Maximum amount of material sticking to the punch: 0.17 mg
[3]
  D10: 12.1 μm
  D50: 241.7 μm
  D90: 1133 μm
  MV (average particle diameter calculated by volume): 420.3 μm
[4]
  Crystalline form/crystallinity after grinding: decreases after grinding; also recorded: Crystallinity decreased
[5]
  Diameter: 6.09 mm
  Hardness: 10.1 N
  Thickness: 2.13 mm
  Tensile strength: 0.50 MPa

## CNC(=O)c1ccc(N2C(=S)N(c3cnc(C#N)c(C(F)(F)F)c3)C(=O)C23CCC3)cc1F [Form CS8, 4-[7-(6-cyano-5-trifluoromethylpyridin-3-yl)-8-oxo-6-thioxo-5,7-diazaspiro[3.4]oct-5-yl]-2-fluoro-N-methylbenzamide]
[1]; [9]
  Solubility (concentration of saturated solution): 23.6 µg/mL
[1]; [10]
  Solubility (concentration of saturated solution): 25.1 µg/mL
[1]; [11]
  Solubility (concentration of saturated solution): 18.7 µg/mL
[1]; [12]
  Solubility (concentration of saturated solution): 17.7 µg/mL
[1]; [13]
  Solubility (concentration of saturated solution): 10.6 µg/mL
[1]; [14]
  Solubility (concentration of saturated solution): 10.9 µg/mL
[1]; pH=1.0 HCl aqueous solution
  Solubility relative to Form A of the prior art: 3.2 times
  Solubility relative to Form B of the prior art: 19.7 times
[1]; [18]
  Solubility relative to Form A of the prior art: 3.0 times
  Solubility relative to Form B of the prior art: 16.1 times
[1]; [19]
  Solubility relative to Form A of the prior art: 3.7 times
  Solubility relative to Form B of the prior art: 19.0 times
[1]; [15]
  Solubility (concentration of saturated solution): 22.8 µg/mL
[1]; [16]
  Solubility (concentration of saturated solution): 18.9 µg/mL
[1]; [17]
  Solubility (concentration of saturated solution): 20.6 µg/mL
[6]; 25° C./60% RH (closed)
  Solid form after storage: From CS8
  Purity after storage: 99.96%
[6]; 25° C./60% RH (open)
  Solid form after storage: From CS8
  Purity after storage: 99.96%
[6]; 40° C./75% RH (closed)
  Solid form after storage: From CS8
  Purity after storage: 99.95%
[6]; 40° C./75% RH (open)
  Solid form after storage: From CS8
  Purity after storage: 99.95%
[6]; 25° C./60% RH
  Time for which the form does not change / keeps stable on storage: at least 6 months
  Chemical purity during storage: above 99.9%
[6]; 40° C./75% RH
  Time for which the form does not change / keeps stable on storage: at least 6 months
  Chemical purity during storage: above 99.9%
[2]
  Average amount of material sticking to the punch: 0.08 mg
  Maximum amount of material sticking to the punch: 0.11 mg
[3]
  D10: 48.60 μm
  D50: 100.8 μm
  D90: 164.9 μm
  MV (average particle diameter calculated by volume): 104.7 μm
[7]
  Time for which the form does not change / keeps stable on storage: at least 2 weeks
[7]; container open or close, 2 weeks
  Solid form after storage: Form CS8
[4]
  Crystalline form/crystallinity after grinding: doesn't change after grinding
[5]
  Diameter: 6.05 mm
  Hardness: 14.6 N
  Thickness: 2.19 mm
  Tensile strength: 0.70 MPa
[8]; pressure 3 kN
  Crystalline form after tableting: Form CS8
[8]; pressure 7 kN
  Crystalline form after tableting: Form CS8
[8]; pressure 14 kN
  Crystalline form after tableting: Form CS8
